In patent US20220324815A1, “2-PHENOXY-PYRIMIDINE DERIVATIVES AS HERBICIDAL COMPOUNDS” (SYNGENTA CROP PROTECTION AG, priority 2019, published 2022):

Key:
Type in all cases: in vivo
Conditions in all cases: 250 g/ha unless otherwise stated, evaluated after 13 days, five-point scale
[1] = test system: Echinochloa crus-galli (ECHCG); assay: Test 1 glasshouse herbicide test, post-emergence application (Table B1)
Method: (§1) Seeds of a variety of test species are sown in standard soil in pots (Lolium perenne (LOLPE), Solanum nigrum (SOLNI), Amaranthus retoflexus (AMARE), Setaria faberi (SETFA), Echinochloa crus-galli (ECHCG) and Ipomoea hederacea (IPOHE)). After cultivation for one day (pre-emergence) or after 8 days cultivation (post-emergence) under controlled conditions in a glasshouse (at 24/16° C., day/night; 14 hours light; 65% humidity), the plants are sprayed with an aqueous spray solution derived from the formulation of the technical active ingredient in acetone/water (50:50) solution containing 0.5% Tween 20 (polyoxyethelyene sorbitan monolaurate, CAS RN 9005-64-5). Compounds are applied at 250 g/ha unless otherwise stated. The test plants are then grown in a glasshouse under controlled conditions in a glasshouse (at 24/16° C., day/night; 14 hours light; 65% humidity) and watered twice daily. After 13 days for pre and post-emergence, the test is evaluated for the percentage damage caused to the plant. The biological activities (% phytotoxicity) are shown in Tables B1 and B2 below using a five-point scale (5=81 to 100%; 4=61 to 80%; 3=41 to 60%; 2=21 to 40%; 1=0 to 20%).

[2] = test system: Setaria faberi (SETFA); assay: as above
Method: as §1

[3] = test system: Amaranthus retoflexus (AMARE); assay: as above
Method: as §1

[4] = test system: Ipomoea hederacea (IPOHE); assay: as above
Method: as §1

[5] = test system: Echinochloa crus-galli (ECHCG); assay: Test 1 glasshouse herbicide test, pre-emergence application (Table B2)
Method: as §1

[6] = test system: Setaria faberi (SETFA); assay: as above
Method: as §1

[7] = test system: Amaranthus retoflexus (AMARE); assay: as above
Method: as §1

[8] = test system: Ipomoea hederacea (IPOHE); assay: as above
Method: as §1

SMILES	% phytotoxicity ECHCG, post-emergence application [1]	% phytotoxicity SETFA, post-emergence application [2]	% phytotoxicity AMARE, post-emergence application [3]	% phytotoxicity IPOHE, post-emergence application [4]	% phytotoxicity ECHCG, pre-emergence application [5]	% phytotoxicity SETFA, pre-emergence application [6]	% phytotoxicity AMARE, pre-emergence application [7]	% phytotoxicity IPOHE, pre-emergence application [8]
N#Cc1cccc(Oc2ncc(Cl)cn2)c1SCCCCCC(F)(F)F [Compound A40]	4 (4=61 to 80%)	4 (4=61 to 80%)	5 (5=81 to 100%)	3 (3=41 to 60%)	4 (4=61 to 80%)	5 (5=81 to 100%)	5 (5=81 to 100%)	1 (1=0 to 20%)
COCCSc1ccccc1Oc1ncc(Cl)cn1 [Compound A41]	3 (3=41 to 60%)	2 (2=21 to 40%)	3 (3=41 to 60%)	3 (3=41 to 60%)	2 (2=21 to 40%)	2 (2=21 to 40%)	1 (1=0 to 20%)	2 (2=21 to 40%)
COCCS(=O)(=O)c1ccccc1Oc1ncc(Cl)cn1 [Compound A42]	1 (1=0 to 20%)	1 (1=0 to 20%)	2 (2=21 to 40%)	1 (1=0 to 20%)	1 (1=0 to 20%)	1 (1=0 to 20%)	1 (1=0 to 20%)	1 (1=0 to 20%)
CCCCCS(=O)(=O)c1ccccc1Oc1ncc(Cl)cn1 [Compound A43]	2 (2=21 to 40%)	2 (2=21 to 40%)	3 (3=41 to 60%)	1 (1=0 to 20%)	4 (4=61 to 80%)	4 (4=61 to 80%)	5 (5=81 to 100%)	1 (1=0 to 20%)
CCCCCSc1ccccc1Oc1ncc(Cl)cn1 [Compound A44]	4 (4=61 to 80%)	2 (2=21 to 40%)	5 (5=81 to 100%)	1 (1=0 to 20%)	5 (5=81 to 100%)	5 (5=81 to 100%)	5 (5=81 to 100%)	1 (1=0 to 20%)
C#CCSc1ccccc1Oc1ncc(Cl)cn1 [Compound A45]	3 (3=41 to 60%)	2 (2=21 to 40%)	3 (3=41 to 60%)	1 (1=0 to 20%)	3 (3=41 to 60%)	3 (3=41 to 60%)	3 (3=41 to 60%)	1 (1=0 to 20%)
C#CCS(=O)(=O)c1ccccc1Oc1ncc(Cl)cn1 [Compound A46]	1 (1=0 to 20%)	1 (1=0 to 20%)	1 (1=0 to 20%)	1 (1=0 to 20%)	1 (1=0 to 20%)	1 (1=0 to 20%)	1 (1=0 to 20%)	1 (1=0 to 20%)
C=CCS(=O)(=O)c1ccccc1Oc1ncc(Cl)cn1 [Compound A48]	1 (1=0 to 20%)	1 (1=0 to 20%)	2 (2=21 to 40%)	1 (1=0 to 20%)	1 (1=0 to 20%)	1 (1=0 to 20%)	1 (1=0 to 20%)	1 (1=0 to 20%)
CCCSc1ccccc1Oc1ncc(Cl)cn1 [Compound A49]	4 (4=61 to 80%)	4 (4=61 to 80%)	4 (4=61 to 80%)	4 (4=61 to 80%)	5 (5=81 to 100%)	5 (5=81 to 100%)	5 (5=81 to 100%)	3 (3=41 to 60%)
CCCS(=O)(=O)c1ccccc1Oc1ncc(Cl)cn1 [Compound A50]	1 (1=0 to 20%)	1 (1=0 to 20%)	4 (4=61 to 80%)	2 (2=21 to 40%)	4 (4=61 to 80%)	5 (5=81 to 100%)	5 (5=81 to 100%)	2 (2=21 to 40%)
O=S(=O)(CC1CC1)c1ccccc1Oc1ncc(Cl)cn1 [Compound A51]	1 (1=0 to 20%)	1 (1=0 to 20%)	3 (3=41 to 60%)	1 (1=0 to 20%)	1 (1=0 to 20%)	2 (2=21 to 40%)	4 (4=61 to 80%)	1 (1=0 to 20%)
CC(C)=CCSc1ccccc1Oc1ncc(Cl)cn1 [Compound A52]	4 (4=61 to 80%)	3 (3=41 to 60%)	3 (3=41 to 60%)	1 (1=0 to 20%)	2 (2=21 to 40%)	1 (1=0 to 20%)	1 (1=0 to 20%)	1 (1=0 to 20%)
CCCCCCSc1ccccc1Oc1ncc(Cl)cn1 [Compound A53]	1 (1=0 to 20%)	1 (1=0 to 20%)	4 (4=61 to 80%)	1 (1=0 to 20%)	2 (2=21 to 40%)	3 (3=41 to 60%)	3 (3=41 to 60%)	1 (1=0 to 20%)
FC(F)(F)CSc1ccccc1Oc1ncc(Cl)cn1 [Compound A55]	4 (4=61 to 80%)	4 (4=61 to 80%)	5 (5=81 to 100%)	4 (4=61 to 80%)	5 (5=81 to 100%)	5 (5=81 to 100%)	5 (5=81 to 100%)	2 (2=21 to 40%)
